Positions of bridges follow the written chain, without caps; N, C: chain ends. Non-standard residues stand in square brackets, D forms with d. Residues, ends and D or L forms follow the SMILES beside them. ξ: configuration not given here. ξK = NCCCCC(N)C(=O)O
Legend:
[1] = tested on: Trypanosoma brucei brucei; experiment: Antitrypanosomal activity against bloodstream form of Trypanosoma brucei brucei assessed as reduction in parasite growth; assay type: functional, organism-based
[2] = Selectivity index, ratio of IC50 for cytotoxicity against mouse peritoneal macrophage cells to IC50 for antitrypanosomal activity against bloodstream form of Trypanosoma brucei; assay type: toxicity, cell-based; details: read-out: Ratio IC50
Leishmania donovani [3] = experiment: Antileishmanial activity against Leishmania donovani promastigotes assessed as parasite growth inhibition; assay type: functional, organism-based
Trypanosoma brucei = experiment: Antitrypanosomal activity against bloodstream form of Trypanosoma brucei assessed as parasite growth inhibition; assay type: functional, organism-based
[4] = Selectivity index, ratio of IC50 for cytotoxicity against mouse peritoneal macrophage cells to IC50 for antileishmanial activity against Leishmania donovani promastigotes; assay type: toxicity, cell-based; details: read-out: Ratio IC50
[5] = Selectivity index, ratio of IC50 for cytotoxicity against rat L6 cells to IC50 for antitrypanosomal activity against bloodstream form of Trypanosoma brucei rhodesiense; assay type: toxicity, cell-based; details: read-out: Ratio IC50
[6] = tested on: Trypanosoma brucei rhodesiense; experiment: Antitrypanosomal activity against bloodstream form of Trypanosoma brucei rhodesiense assessed as parasite growth inhibition; assay type: functional, organism-based
Leishmania donovani [7] = experiment: Antileishmanial activity against amastigote form of Leishmania donovani assessed as parasite growth inhibition; assay type: functional, organism-based
Trypanosoma cruzi [8] = experiment: Antitrypanosomal activity against intracellular Trypanosoma cruzi amastigote assessed as reduction in parasite growth; assay type: functional, organism-based
Leishmania infantum [9] = experiment: Antileishmanial activity against amastigote stage of Leishmania infantum; assay type: functional, organism-based
Leishmania major = experiment: Antileishmanial activity against Leishmania major promastigotes assessed as parasite growth inhibition; assay type: functional, organism-based
[10] = tested on: Trypanosoma brucei brucei; experiment: Antitrypanosomal activity against Trypanosoma brucei brucei; assay type: functional, organism-based
[11] = Selectivity index, ratio of IC50 for cytotoxicity against human T98G cells to IC50 for antitrypanosomal activity against Trypanosoma brucei brucei; assay type: toxicity, cell-based; details: read-out: Ratio IC50
Trypanosoma cruzi [12] = experiment: Antitrypanosomal activity against epimastigote form of Trypanosoma cruzi assessed as reduction in parasite growth; assay type: functional, organism-based
Trypanosoma cruzi [13] = experiment: Antitrypanosomal activity against trypomastigote form of Trypanosoma cruzi assessed as reduction in parasite growth; assay type: functional, organism-based
Plasmodium berghei [14] = experiment: In vivo antimalarial activity against GFP-transfected Plasmodium berghei ANKA infected in NMRI mouse assessed as reduction of parasitaemia at 100 mg/kg/day, po for 4 days relative to control; assay type: functional; details: 96 h, time 4 day
Plasmodium berghei [15] = experiment: In vivo antimalarial activity against GFP-transfected Plasmodium berghei ANKA infected in NMRI mouse assessed as reduction in parasitemia at 50 mg/kg/day, ip administered for 4 consecutive days relative to control; assay type: functional
Leishmania infantum [16] = experiment: Antileishmanial activity against promastigote stage of Leishmania infantum; assay type: functional, organism-based
THP-1 = experiment: Cytotoxicity against human THP-1 cells; assay type: functional, cell-based

O=c1c(O[C@@H]2O[C@H](CO)[C@@H](O)[C@H](O)[C@H]2O)c(-c2cc(O)c(O)c(O)c2)oc2cc(O)cc(O)c12
EC50 [1]: 13.1 µM

Cn1c2c3cc(Br)ccc3nc-2cc2cc(Br)ccc21
selectivity ratio [2]: 2080
EC50 (Leishmania donovani [3]): 500 nM
EC50 (Trypanosoma brucei): 2.9 nM
selectivity ratio [4]: 18

COc1ccc2c(=O)cc(-c3ccccc3)oc2c1OC
selectivity ratio [5]: 5
EC50 [6]: 21.6 µM

C[C@@H]1O[C@@H](Oc2cc(O)c3c(=O)c(O)c(-c4ccc(O)c(O)c4)oc3c2)[C@H](O)[C@H](O)[C@H]1O
EC50 [1]: 20.1 µM

C/C=C(\C)C(=O)O[C@@H]1CC([C@@H](O)C2=CC3OC(=O)C4=C3[C@H]2[C@H]2OC(=O)[C@H](C)[C@@H]2[C@H](OC(=O)/C(C)=C/C)C4)=C2C(=O)C=C(C)[C@@H]2[C@H]2OC(=O)[C@H](C)[C@@H]21 (some centres not stated)
EC50 (Leishmania donovani [7]): 10.2 µM
EC50 [6]: 4.5 µM
EC50 (Trypanosoma cruzi [8]): 30.3 µM

C/C=C(\C)C(=O)O[C@@H]1CC(C(=O)O)=C2C(=O)C=C(C)[C@@H]2[C@H]2OC(=O)[C@H](C)[C@@H]21
EC50 [6]: 20.7 µM

O=c1c(O)c(-c2cc(O)c(O)c(OS(=O)(=O)O)c2)oc2cc(O)cc(O)c12
EC50 [1]: 21.4 µM

C=C1CC[C@H]2C(C)(C)CCC[C@]2(C)[C@H]1CC/C(C)=C/Cn1c[n+](C)c2ncnc(N)c21
EC50 (Leishmania infantum [9]): 3000 nM
EC50 (Trypanosoma cruzi [8]): 9 µM
EC50 [1]: 1.8 µM

C=C(C)C(=O)O[C@H]1CC2=C[C@@H](C/C(C)=C/[C@H]3OC(=O)C(=C)[C@H]13)OC2=O
EC50 [6]: 0.07 µM
EC50 (Leishmania major): < 280 nM

CC/C=C(C)\C=C\CCC[C@]1(OC)C[C@H](C)[C@H](CC(=O)OC)OO1
selectivity ratio [5]: > 350
EC50 [6]: 0.032 µM

Cc1cc(O[C@@H]2O[C@@H](C)[C@H](O)[C@@H](O)[C@H]2O)c2c(c1)cc(O[C@@H]1O[C@@H](C)[C@H](O)[C@@H](O)C1O)c1c(=O)c3c(O)cccc3oc12 (some centres not stated)
EC50 [1]: 15.5 µM

CC1=C\C=C\C[C@H](C)NC(=O)/C=C/C=C/C=C/[C@H](C)[C@@H](O)[C@H](O)[C@H](O)C[C@@H](O)\C=C\C=C\C(C)=C\1
EC50 [10]: 6.1 µM
selectivity ratio [11]: 11

CO[C@@]1(CCCC2(O)C=C(C)C(C)O2)C[C@H](C)[C@H](CC(=O)O)OO1 (some centres not stated)
EC50 [6]: 0.17 µM
EC50 [1]: 0.049 µM

CC1=C\C=C\C[C@H](C)NC(=O)/C=C/C=C/C=C/[C@H](C)[C@@H](O)[C@H](O)[C@H](O)C[C@@H](O)/C=C\C=C\C(C)=C\1
EC50 [10]: 0.8 µM
selectivity ratio [11]: 83

CO/N=c1\[n-]cnc2c1n(C/C=C(\C)CCC=C(C)C)c[n+]2C
EC50 (Leishmania infantum [9]): 2000 nM
EC50 (Trypanosoma cruzi [8]): < 0.25 µM
EC50 [1]: 0.5 µM

CC/C=C(C)/C=C/CCC[C@]1(OC)C[C@H](C)[C@H](CC(=O)O)OO1
selectivity ratio [5]: 3.8
EC50 [6]: 5.7 µM

CC[C@H](C)[C@@H]1NC(=O)CNC(=O)[C@H](CCCNC(=N)N)NC(=O)[C@H](Cc2ccc(O)cc2)NC(=O)[C@@H]2CSSC[C@H](NC1=O)C(=O)N[C@@H](Cc1ccc(O)cc1)C(=O)N[C@@H](CCCNC(=N)N)C(=O)N[C@@H](CCCNC(=N)N)C(=O)N[C@H](C(=O)N[C@@H](CCCNC(=N)N)C(N)=O)CSSC[C@H](NC(=O)[C@H](Cc1c[nH]c3ccccc13)NC(=O)C(N)CCCCN)C(=O)N[C@@H](Cc1ccccc1)C(=O)N[C@@H](CCCNC(=N)N)C(=O)N[C@@H](C(C)C)C(=O)N2 (some centres not stated) (H-[ξK]WCFRVCYRGICYRRCR-NH2; disulfide 3-16, 7-12)
EC50 (Trypanosoma cruzi [12]): 47.9 µM
EC50 (Trypanosoma cruzi [13]): 9.3 µM

O=c1cc(-c2ccccc2)oc2c(O)c(O)ccc12 [7,8-DIHYDROXYFLAVONE]
selectivity ratio [5]: 116
EC50 [6]: 0.27 µM

O=C(O)c1ccc2c(n1)C(=O)C1=C(C2=O)S(=O)(=O)CCN1 [ACIDIATHIAZONE A]
selectivity ratio [5]: 50
EC50 [6]: 3.1 µM
inhibition in vivo at 100 mg/kg/day (Plasmodium berghei [14]): 45%
inhibition in vivo at 50 mg/kg/day (Plasmodium berghei [15]): 85%

C[C@@H]1[C@H](O)[C@@H](C)/C=C/C=C/C=C/C=C/C=C/C=C/C=C/[C@H](O[C@@H]2O[C@H](C)[C@@H](O)[C@H](N)[C@@H]2O)C[C@@H]2O[C@](O)(C[C@@H](O)C[C@@H](O)[C@H](O)CC[C@@H](O)C[C@@H](O)CC(=O)O[C@H]1C)C[C@H](O)[C@H]2C(=O)O [AMPHOTERICIN B]
EC50 (Leishmania infantum [16]): 40 nM
EC50 (THP-1): 2000 nM
